Reference: patent US9426983B2, “Agrochemical composition and method for preparing the same” (priority 2007, dated 2016)

Assay: Tebuconazole concentration in the sprayed composition, determined by chromatograph
Format: physicochemical
Experimental: After the storage period of two weeks, each of the concentrates A to E was diluted with water. 10 liters of spraying compositions were prepared using hard water (CIPAC standard water D, 342 ppm) in 3 different concentrations: 0.5, 1, and 2 times the recommended spraying concentration for each concentrate.
Each diluted composition was sprayed using a personal spraying machine and using one spray nozzle equipped with 200 mesh screen. A sample of each composition was collected leaving the spraying machine after spraying.
Further, every sample of the spray compositon was analyzed in a chromatograph to determine the concentration of tebuconazole in the composition as it would be reaching the locus to be treated. […]

CC(C)(C)C(O)(CCc1ccc(Cl)cc1)Cn1cncn1 (stereo not drawn) [Tebuconazole] showed a Tebuconazole concentration (0.5% dilution, 0 hr) of 2064 ppm, a Tebuconazole concentration (0.5% dilution, 1 hr) of 2039 ppm and a Tebuconazole concentration (0.5% dilution, 2 hr) of 2009 ppm. The Tebuconazole concentration (0.5% dilution, 3 hr) was 1969 ppm, the Tebuconazole concentration (0.5% dilution, 4 hr) was 1924 ppm and the Tebuconazole concentration (1.0% dilution, 0 hr) was 4150 ppm. For the same molecule, the Tebuconazole concentration (1.0% dilution, 1 hr) was 4123 ppm, the Tebuconazole concentration (1.0% dilution, 2 hr) was 4091 ppm and the Tebuconazole concentration (1.0% dilution, 3 hr) was 4052 ppm. The Tebuconazole concentration (1.0% dilution, 4 hr) was 4007 ppm, the Tebuconazole concentration (2.0% dilution, 0 hr) was 8300 ppm and the Tebuconazole concentration (2.0% dilution, 1 hr) was 8272 ppm. It also gave a Tebuconazole concentration (2.0% dilution, 2 hr) of 8237 ppm, a Tebuconazole concentration (2.0% dilution, 3 hr) of 8197 ppm and a Tebuconazole concentration (2.0% dilution, 4 hr) of 8152 ppm.
